± gives the expanded uncertainty stated by the source.
Tests used:
[1] = Crystal; DTA
[2] = Molar enthalpy of transition or fusion; settings: Crystal; DSC

- Normal melting temperature [1]: 177.74 ± 0.41 °C
- Molar enthalpy of transition or fusion [2]: 4.65 ± 0.136 kcal/mol
SMILES: CC(C)C1=CC2=CC[C@@H]3[C@](C)(CCC[C@@]3(C)C(=O)O)[C@H]2CC1 [abietic acid]
